This passage reports IC50 results from PubChem BioAssay AID624167 (Sanford-Burnham Center for Chemical Genomics, 2012).

For assay [1], the system named is Rat fibroblasts (CREF). The experiment in a line: Peg3 promoter luciferase inhibitors, potency, dose response, cell-based, HeLa, CREF/GAPDH counter-screen panel (AID 624167). To be noted: CREF/GAPDH counter-screens.
Assay [2] concerns GAPDH. The assay is described as above. To be noted: CREF/GAPDH counter-screens. For orientation: Counterscreens check selectivity or assay interference.
Test in assay [3]: as above
To be noted: CREF/GAPDH counter-screens; GAPDH; mean of runs.

The subject of assay [4] is PEG-3. Described as above. To be noted: HeLa PEG-Prom luciferase reporter, overnight, CREF/GAPDH counter-screens. (In general: Reporter assays use an easily measured gene product as a stand-in for the process of interest.)
The target of assay [5] is PEG-3 (UniProt Q6IN02). The assay is described as above. To be noted: HeLa PEG-Prom luciferase reporter, overnight, CREF/GAPDH counter-screens, mean of runs.
Where [6] appears, read: run 1, dose range 1, individual replicate IC50 per panel.
[7] abbreviates: run 2, dose range 1, individual replicate IC50 per panel.

Activity calls are given as the source filed them.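 Rule for the calls: active = mean IC50 for reducing PEG3 promoter reporter signal at or below a set limit, with IC50 above the limit in both counter screens; inactive = the rest, including counter screen hits.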

Chain of PEG-3 (UniProt Q6IN02) (Q6IN02 whole entry, looked up): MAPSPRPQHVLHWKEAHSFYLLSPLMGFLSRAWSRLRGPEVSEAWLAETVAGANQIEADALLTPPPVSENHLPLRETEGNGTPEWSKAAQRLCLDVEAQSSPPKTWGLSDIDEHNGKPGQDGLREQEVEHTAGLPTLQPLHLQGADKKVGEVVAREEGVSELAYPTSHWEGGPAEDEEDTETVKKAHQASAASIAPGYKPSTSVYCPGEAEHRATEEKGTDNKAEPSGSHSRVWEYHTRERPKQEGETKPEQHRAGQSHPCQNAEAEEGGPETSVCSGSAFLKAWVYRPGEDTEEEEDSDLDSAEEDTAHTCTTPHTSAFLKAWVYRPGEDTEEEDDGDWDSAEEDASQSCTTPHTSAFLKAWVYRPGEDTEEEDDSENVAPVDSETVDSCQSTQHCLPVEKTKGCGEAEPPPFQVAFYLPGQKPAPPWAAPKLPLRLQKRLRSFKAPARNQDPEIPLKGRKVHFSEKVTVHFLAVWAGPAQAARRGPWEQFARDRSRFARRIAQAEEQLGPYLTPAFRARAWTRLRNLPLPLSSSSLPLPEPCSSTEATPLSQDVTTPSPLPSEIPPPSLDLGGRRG

Regarding `COc1ccc(NC(=O)c2cc(-c3ccccn3)nc3ccccc23)cc1S(=O)(=O)N(C)C`, the IC50 in assay [1] (mean of runs) was > 100 µM (inactive); in assay [1] (setting [6]), over 100 µM; in assay [1] (setting [7]), over 100 µM; in assay [2] (setting [6]) it was over 100 µM; in assay [2] (setting [7]) it was 43.6 µM; in assay [4] (setting [6]) it was 1120 nM. Also, the IC50 was 329 nM in assay [4] (setting [7]) and 724 nM in assay [5]. In assay [3], the IC50 result is “inactive”.

Take `CC1=CC2/C=C(\C)CCC(O)C(O)/C=C/C(=O)C23C(=O)NC(CC(C)C)C3C1C` (centres undefined): the IC50 in assay [1] (mean of runs) is 14.3 µM; in assay [1] (setting [6]), 20.1 µM; in assay [1] (setting [7]), 8.55 µM; in assay [2] (setting [6]) it was 9.17 µM; in assay [2] (setting [7]) it was 6.59 µM; in assay [3], 7.88 µM. Also, the IC50 in assay [4] (setting [6]) was 5760 nM; in assay [4] (setting [7]), 3790 nM; in assay [5] it was 4780 nM.

With `Cc1ccc(/C=C2\SC(=S)N(CCCC(=O)NNC(=O)c3ccccc3O)C2=O)cc1`, the IC50 in assay [1] (mean of runs) is > 100 µM (inactive); in assay [1] (setting [6]), over 100 µM; in assay [1] (setting [7]), over 100 µM; in assay [2] (setting [6]), 2.65 µM; in assay [2] (setting [7]), 7.43 µM; in assay [3], 5.04 µM. The IC50 in assay [4] (setting [6]) was 1710 nM; in assay [4] (setting [7]) it was under 200 nM; in assay [5], 950 nM.

For `CC(=O)NC(c1ccc(Cl)cc1)c1ccc2cccnc2c1O` (centres undefined), the IC50 in assay [1] (mean of runs) is > 100 µM (inactive); in assay [1] (setting [6]), over 100 µM; in assay [1] (setting [7]), over 100 µM; in assay [2] (setting [6]), 58.8 µM; in assay [2] (setting [7]), 56 µM; in assay [4] (setting [6]), 1470 nM. Also, the IC50 in assay [4] (setting [7]) is 2040 nM; in assay [5] it was 1750 nM. Besides, in assay [3], the IC50 entry was “inactive”.

On to `CCC(c1ccc(O)c(O)c1)C(CC)c1ccc(O)c(O)c1` (centres undefined), for which the IC50 in assay [1] (mean of runs) is 19.9 µM; in assay [1] (setting [6]), 23 µM; in assay [1] (setting [7]), 16.7 µM; in assay [2] (setting [6]) it was 35.6 µM; in assay [2] (setting [7]), 33.7 µM; in assay [4] (setting [6]) it was 14200 nM. For the same compound, the IC50 in assay [4] (setting [7]) was 5630 nM; in assay [5], 9940 nM. Further, the IC50 result in assay [3] was “inactive”.

On to `CCCC(=O)NC(c1ccc(C(C)C)cc1)c1ccc2cccnc2c1O` (centres undefined), for which the IC50 in assay [1] (mean of runs) is > 100 µM (inactive); in assay [1] (setting [6]), over 100 µM; in assay [1] (setting [7]), over 100 µM; in assay [2] (setting [6]) it was 26.2 µM; in assay [2] (setting [7]), 85.1 µM; in assay [4] (setting [6]) it was 1940 nM. Also, the values for the IC50 in assay [4] (setting [7]) and in assay [5] were 814 nM and 1380 nM, respectively. Besides, in assay [3], the IC50 result was “inactive”.

Take `CCC(=O)NC(c1ccc(C)cc1)c1ccc2cccnc2c1O` (centres undefined): the IC50 in assay [1] (mean of runs) is > 100 µM (inactive); in assay [1] (setting [6]) it was over 100 µM; in assay [1] (setting [7]), over 100 µM; in assay [2] (setting [6]), 46.6 µM; in assay [2] (setting [7]) it was over 100 µM; in assay [4] (setting [6]), 1310 nM. The compound also returned an IC50 in assay [4] (setting [7]) of over 100000 nM. For the same compound, the IC50 entry in assay [3] and in assay [5] was “inactive” throughout.

Take `CCc1ccc(/C=C2\SC(=S)N(CCCC(=O)NC3=NCCS3)C2=O)cc1`: the IC50 in assay [1] (mean of runs) is > 100 µM (inactive); in assay [1] (setting [6]) it was over 100 µM; in assay [1] (setting [7]), over 100 µM; in assay [2] (setting [6]) it was 4.61 µM; in assay [2] (setting [7]) it was 4.45 µM; in assay [3], 4.53 µM. Also, the IC50 is 1280 nM in assay [4] (setting [6]), 1140 nM in assay [4] (setting [7]) and 1210 nM in assay [5].

In the case of `O=C(Nc1ccc(Cc2ccncc2)cc1)c1ccc([N+](=O)[O-])o1`, the IC50 in assay [1] (mean of runs) was 14.2 µM; in assay [1] (setting [6]), 14 µM; in assay [1] (setting [7]), 14.3 µM; in assay [2] (setting [6]), 56.6 µM; in assay [2] (setting [7]), 63.3 µM; in assay [4] (setting [6]), 13200 nM. For the same compound, the IC50 in assay [4] (setting [7]) is 7690 nM; in assay [5] it was 10500 nM. Moreover, the IC50 result in assay [3] was “inactive”.

For `O=C(c1ccco1)N1CCN(C(c2ccccc2Cl)c2nnnn2Cc2cccs2)CC1` (centres undefined), the IC50 is > 100 µM (inactive) in assay [1] (mean of runs); over 100 µM in assay [1] (setting [6]); over 100 µM in assay [1] (setting [7]); 14.5 µM in assay [2] (setting [6]); 58.7 µM in assay [2] (setting [7]); 3280 nM in assay [4] (setting [6]). The compound further gave an IC50 in assay [4] (setting [7]) of over 100000 nM. For the same compound, the IC50 entry in assay [3] and in assay [5] was “inactive” throughout.

For the compound `CN1CCC2(CC1)N=C(c1ccc(F)cc1)C(=S)N2C(=O)c1ccc(C(C)(C)C)cc1`, the IC50 was 36.5 µM in assay [1] (mean of runs); 28.6 µM in assay [1] (setting [6]); 44.5 µM in assay [1] (setting [7]); 20.4 µM in assay [2] (setting [6]); 20.6 µM in assay [2] (setting [7]); 20.5 µM in assay [3]. The figures for the IC50 in assay [4] (setting [6]), in assay [4] (setting [7]) and in assay [5] were 6480 nM, 1010 nM and 3750 nM, respectively.

The IC50 is the midpoint of a concentration-inhibition curve.
